Results on 17 substances are retold here after patent publication US20070128589A1, “Substrates, sensors, and methods for assessing conditions in females” (priority 2005, published 2007).

Assay [1] relates to proteases produced by Trichomonas vaginalis. In words: High throughput screening of GFP-random peptide fusion library with Trichomonas vaginalis cell-free growth medium. It counts as biochemical. Conditions: 4,900 clones screened, LYI entamoeba medium. As to the method: Peptide substrates for proteases produced by the vaginal pathogen Trichomonas vaginalis were also identified. This microbe was grown in LYI entamoeba medium overnight and the cell-free growth medium was used in the high throughput screening of 4,900 clones from a GFP-random peptide fusion library.
Peptides 39H9 and 42D3 were altered to remove the lysine residues prior to peptide synthesis. The peptides were conjugated to HRP and affigel 10 beads and produced a visible color signal in five minutes at 650 nm when an aliquot of the protease-treated product was incubated with tetramethyl benzidine.

A further assay deals with C. albicans. In words: Identification of peptide targets for C. albicans. It counts as biochemical, Candida albicans. As to the method: Clones of green fluorescent protein (GFP) tagged conjugates were used to identify targets in a high throughput screen. Each clone contained a plasmid harboring a gene that contains a polyhistidine tag (6 his), 30 random nucleotides (corresponding to 10 random amino acids), and green fluorescent protein (GFP). On the day before a screen, 864 glowing clones are grown up overnight at 37° C. in deep well microtiter plates (1 ml/well). In the morning, the cultures can be induced with 1 mM IPTG for 1 hour, the cells can be centrifuged for five minutes, and then the media can be decanted. Lysozyme (2 mg/ml) can be added and the cells can be flash frozen 3 times. The samples can be treated with 100 ul/well of DNAse I at 37° C. for 30 minutes to reduce the viscosity by digesting the DNA. An aliquot of the sample can then be transferred to a microtiter filter plate containing 10 μl of nickel-NTA resin. The pipeting of the reagents (IPTG, lysozyme, DNAse I, and beads) can be performed with a Tecan Genesis RSP 100 Robot with Gemini version 4.0 software.
(§1) The plates can be filtered by centrifugation three times with PBS to remove unbound material and then the GFP-peptide-bound bead can be incubated with microbial extract for 20 min at 37° C. The sample can be filtered and the flow through fluorescence can be compared with the background from the prior wash. If the microbe has a protease that finds the ideal target, then the release of GFP fluorescence from the bead can be over 100 times greater than the background.
(SEQ ID NO: 8), the sequence QKTTIKKLKH (H2) (SEQ ID NO: 9), the sequence KPKAFLKVGN (R8) (SEQ ID NO: 6), the sequence TPIQIHTILH (SEQ ID NO: 10), the sequence […] (SEQ ID NO: 11), the sequence […] (SEQ ID NO: 12), and the sequence […] (SEQ ID NO: 13).

Assay [2] deals with Lactobacillus sp. protease. Kind of assay: GFP-random amino acid sequence-polyhistidine peptide library screen, GFP-peptide released from beads by Lactobacillus supernatant. Conditions: plate number 69, exposed to Lactobacillus, FIG. 9. The assay is classed as biochemical, Lactobacillus acidophilus. As to the method: (§2) The samples were then incubated with beads that bind the epitope tag (e.g., 10 μl of NTA-resin to bind a polyhistidine tag or 10 μl of methotrexate agarose to bind the FolA tag). The sample was then placed into a microtiter filtration plate and washed three times to remove the unbound proteins. The fluorescent signal of the third wash was measured in a fluorescent microplate reader at an excitation of 355 nm and an emission of 510 nm (for GFP). Alternatively, the HRP activity can be measured in a microplate colorimeter at 405 nm with H2O2 and ABTS substrate. This background reading from the third rinse can later be subtracted from the signal of the released GFP (or HRP) peptides by extracellular bacterial proteases. […]
as §1
(§3) Fluorescence can be measured on a Fluoroskan II instrument with an excitation filter centered at 380 nm and emission filter centered at 538 nm. […]

The subject of another assay is Gardnerella vaginalis. In words: GFP-random amino acid sequence-polyhistidine peptide library screen with Gardnerella extracts. The assay is classed as biochemical. Conditions: plate 76, FIG. 10. On the procedure:
as §2, §1, §3

Assay [3] concerns C. albicans clinical isolates. Conditions: for reaction with ten clinical C. albicans isolates (released HRP): HRP-peptide-Affigel conjugate, cell-free growth medium, ten minutes, FIG. 24; for sensitivity: all ten clinical isolates. On the procedure:
For example, ten clinical C. albicans isolates kindly provided by Dr. Andrew Onderdonk (Brigham and Women's Hospital) were tested alongside a strain obtained from C. albicans ATCC. The yeast cells were grown in YCB-BSA (23.4 g yeast carbon base, 2 g yeast extract, 10 g dextrose, and 5 g of BSA per liter—adjusted to pH 5.0). An aliquot of the cell-free growth medium was mixed with an HRP-peptide-Affigel conjugate for ten minutes and the amount of released HRP was determined.

The test system of another assay is Candida albicans. On the procedure: For example, in one embodiment, the H2 peptide was conjugated to Blue dye #1 as a reporter on the C-terminal end. The N-terminal end was conjugated to Affigel 10 beads (BioRad). The beads were exposed to an aliquot of overnight grown Candida albicans for a period of 24 hours at 37° C. A control set of beads was also exposed to culture medium. Blue dye released from the beads by the action of Candida albicans was collected on a membrane to produce a clear signal.
Food grade sensors can be used in consumer products. […] The resulting beads were incubated with growth medium (1:2 BHI/PBS) alone (control) and an overnight grow-up of Candida albicans for 24 hours at 37° C. […] The preferred ion exchange membranes to collect the free dye are SB6407 and Biodyne B (Pall Life Sciences, Ann Arbor, Mich. and positively charged PVDF (Millipore)). These membranes have strong positively-charged quaternary ammonium groups.
In one example, dye-conjugated Affigel 10 beads were exposed to Candida albicans supernatant (20 μl of 1:10 dilution of beads) or a medium control (1:2 BHI/PBS) for 24 hours. The color was collected with a positively charged membrane (SB6407) in with the bead reaction.

Assay [4] relates to Gardnerella vaginalis, Lactobacillus acidophilus, and Escherichia coli. Kind of assay: HRP-peptide-Affigel conjugates: initial specificity study with other vaginal bacteria. It counts as biochemical.
In a further assay the target is HSV protein UL26 (Human herpesvirus 1, UniProt P10210). Conditions: cited from earlier work.
Chain of HSV protein UL26 (P10210 whole entry): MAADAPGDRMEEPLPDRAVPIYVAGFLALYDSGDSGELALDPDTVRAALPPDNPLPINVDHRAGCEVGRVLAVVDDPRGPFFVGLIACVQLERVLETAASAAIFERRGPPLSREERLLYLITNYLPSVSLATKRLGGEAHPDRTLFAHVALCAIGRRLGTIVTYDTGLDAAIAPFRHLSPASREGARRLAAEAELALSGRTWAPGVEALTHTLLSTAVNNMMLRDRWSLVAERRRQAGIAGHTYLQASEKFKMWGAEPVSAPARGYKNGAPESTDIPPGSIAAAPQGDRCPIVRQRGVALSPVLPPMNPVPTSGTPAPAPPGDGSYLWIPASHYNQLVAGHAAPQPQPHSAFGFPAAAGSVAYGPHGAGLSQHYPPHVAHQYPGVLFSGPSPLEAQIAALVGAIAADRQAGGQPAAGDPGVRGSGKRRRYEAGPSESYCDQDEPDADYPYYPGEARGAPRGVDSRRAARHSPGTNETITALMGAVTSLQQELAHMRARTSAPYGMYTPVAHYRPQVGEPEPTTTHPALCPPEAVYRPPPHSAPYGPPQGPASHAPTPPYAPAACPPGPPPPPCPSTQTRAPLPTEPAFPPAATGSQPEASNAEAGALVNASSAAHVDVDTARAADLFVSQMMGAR

No end group written: not given here.

As for “KNPKLQDHYI (Peptide Substrate of Trichomonas vaginalis) [44B5/T7, peptide detecting Trichomonas vaginalis]”, in assay [1], the “identified as peptide detecting Trichomonas vaginalis” value is reported as “detect Trichomonas vaginalis”. Still for that read-out and setting: the result for “SKQQDIIKKY (Peptide Substrate of Trichomonas vaginalis) [44E6/T7, peptide detecting Trichomonas vaginalis]” reads “detect Trichomonas vaginalis”. “INLSKKQIYP (Peptide Substrate of Candida spp.) [peptide target for C. albicans]”: the “identified as peptide target for C. albicans” value (from here on “identified as peptide target”) in the assay with C. albicans is listed as “peptide targets for C. albicans”. For “NKTNKTKHAY (Peptide Substrate of Trichomonas vaginalis) [42H8/T7, peptide detecting Trichomonas vaginalis]”, the “identified as peptide detecting Trichomonas vaginalis” value in assay [1] is recorded as “detect Trichomonas vaginalis”. Consider “69/B8 (PFINETYAKFC; Peptide Substrate of Gardnerella vaginalis)”, for which the “signal strength (GFP-peptide released from the beads)” value in assay [2] is reported as 62.8. As for “QINKALKQPK (Peptide Substrate of Trichomonas vaginalis) [41El 1/T7, peptide detecting Trichomonas vaginalis]”, the “identified as peptide detecting Trichomonas vaginalis” value in assay [1] was “detect Trichomonas vaginalis”. Take “76/C3 (ITTTSSKHEHC; Peptide Substrate of Lactobacillus acidophilus)”: in the assay with Gardnerella vaginalis, the “fluorescence after exposure to Gardnerella extracts” value was “strong fluorescence”. With “LYPSQNPVIK (Peptide Substrate of Candida spp.) [peptide target for C. albicans]”, in the assay on C. albicans, the “identified as peptide target” value was “peptide targets for C. albicans”. Regarding “NNPLPKIQKN (Peptide Substrate of Trichomonas vaginalis) [38H9/T7, peptide detecting Trichomonas vaginalis]”, in assay [1], the “identified as peptide detecting Trichomonas vaginalis” value was “detect Trichomonas vaginalis”. As for “QKTTIKKLKH (also: HRP or Blue dye #1 Affigel conjugate) [H2]”, in assay [3], the “reaction with ten clinical C. albicans isolates (released HRP)” value is reported as “reacted strongly” and the sensitivity is reported as 100%. Further, in the assay with Candida albicans (overnight grown Candida albicans, 24 hours at 37° C., no signal from control medium), the “blue dye released from beads / peptide hydrolysis, color collected on membrane” value was “highly visible blue color”. The “clipping by other vaginal bacteria” value in assay [4] was “not significantly clipped”. Besides, the “identified as peptide target” value with C. albicans is “peptide targets for C. albicans”. In the case of “KPSIKPTPPY (Peptide Substrate of Candida spp.) [peptide target for C. albicans]”, in the assay on C. albicans, the “identified as peptide target” value is “peptide targets for C. albicans”.

Take “NITKKSTKII (Peptide Substrate of Candida spp.) [peptide target for C. albicans]”: the “identified as peptide target” value in the assay with C. albicans was “peptide targets for C. albicans”. QRTTIRRLRH [modified H2 peptide]: the “time to visible blue dye release” value in the assay with Candida albicans (collection of color in a feminine pad) is given as “approximately 3 hours”. Take “QIPKSLHPIT (Peptide Substrate of Trichomonas vaginalis) [42D3/T7, peptide detecting Trichomonas vaginalis]”: the “identified as peptide detecting Trichomonas vaginalis” value in assay [1] was “detect Trichomonas vaginalis”. Turning to ASNAEAGALVNASSAAHVDV, in the assay with HSV protein UL26, the cleavage site result was “between the 12th amino acid (alanine) and the 13th amino acid (serine)”; the “specificity of UL26 for the sequence” value is recorded as “strong specificity”. Consider “KPKAFLKVGN (also: histidine tag) [R8, C. albicans peptide; used as H2N-…-OH with histidine tag for immobilization]”, for which, in assay [3], the “reaction with ten clinical C. albicans isolates (released HRP)” value is recorded as “reacted strongly” and the sensitivity was found to be 100%. The “clipping by other vaginal bacteria” value in assay [4] is reported as “not significantly clipped”. Besides, in the assay with C. albicans, the “identified as peptide target” value was “peptide targets for C. albicans”. Consider “LHNYVLLRNIL (Peptide Substrate of Trichomonas vaginalis) [38H8/T7, peptide detecting Trichomonas vaginalis]”, for which the “identified as peptide detecting Trichomonas vaginalis” value in assay [1] is “detect Trichomonas vaginalis”.
